Measurements from ChEMBL document CHEMBL4699607, “Design, synthesis, and computational validation of novel compounds selectively targeting HER2-expressing breast cancer” (Bioorg Med Chem Lett, 2020).
pIC50: −log10 of the molar value. Blank lines part the entries; values can stand above or below the compound they belong to. The source made the active and inactive calls. The rule behind the calls is not given here.

Legend:
[1] = test system: MCF7; assay: Cytotoxicity against human MCF-7 assessed as reduction cell viability at 10 uM by SRB assay; type: functional
[2] = test system: MDA-MB-231; assay: Cytotoxicity against human MDA-MB-231 cells assessed as reduction in cell viability at 10 uM by SRB assay; type: functional, cell-based
[3] = test system: SK-BR-3; assay: Cytotoxicity against human SKBr3 assessed as reduction in cell viability by SRB assay
[4] = test system: MCF7; assay: Cytotoxicity against human MCF-7 assessed as reduction in cell viability by SRB assay
[5] = test system: SK-BR-3; assay: Cytotoxicity against human SKBr3 assessed as reduction cell viability at 10 uM by SRB assay; type: functional
[6] = molecular target: Receptor tyrosine-protein kinase erbB-2 (Homo sapiens) (UniProt P04626); assay: Inhibition of HER2 (unknown origin) at 10 uM by ELISA
Receptor tyrosine-protein kinase erbB-2 (Homo sapiens), sequence (P04626 whole entry): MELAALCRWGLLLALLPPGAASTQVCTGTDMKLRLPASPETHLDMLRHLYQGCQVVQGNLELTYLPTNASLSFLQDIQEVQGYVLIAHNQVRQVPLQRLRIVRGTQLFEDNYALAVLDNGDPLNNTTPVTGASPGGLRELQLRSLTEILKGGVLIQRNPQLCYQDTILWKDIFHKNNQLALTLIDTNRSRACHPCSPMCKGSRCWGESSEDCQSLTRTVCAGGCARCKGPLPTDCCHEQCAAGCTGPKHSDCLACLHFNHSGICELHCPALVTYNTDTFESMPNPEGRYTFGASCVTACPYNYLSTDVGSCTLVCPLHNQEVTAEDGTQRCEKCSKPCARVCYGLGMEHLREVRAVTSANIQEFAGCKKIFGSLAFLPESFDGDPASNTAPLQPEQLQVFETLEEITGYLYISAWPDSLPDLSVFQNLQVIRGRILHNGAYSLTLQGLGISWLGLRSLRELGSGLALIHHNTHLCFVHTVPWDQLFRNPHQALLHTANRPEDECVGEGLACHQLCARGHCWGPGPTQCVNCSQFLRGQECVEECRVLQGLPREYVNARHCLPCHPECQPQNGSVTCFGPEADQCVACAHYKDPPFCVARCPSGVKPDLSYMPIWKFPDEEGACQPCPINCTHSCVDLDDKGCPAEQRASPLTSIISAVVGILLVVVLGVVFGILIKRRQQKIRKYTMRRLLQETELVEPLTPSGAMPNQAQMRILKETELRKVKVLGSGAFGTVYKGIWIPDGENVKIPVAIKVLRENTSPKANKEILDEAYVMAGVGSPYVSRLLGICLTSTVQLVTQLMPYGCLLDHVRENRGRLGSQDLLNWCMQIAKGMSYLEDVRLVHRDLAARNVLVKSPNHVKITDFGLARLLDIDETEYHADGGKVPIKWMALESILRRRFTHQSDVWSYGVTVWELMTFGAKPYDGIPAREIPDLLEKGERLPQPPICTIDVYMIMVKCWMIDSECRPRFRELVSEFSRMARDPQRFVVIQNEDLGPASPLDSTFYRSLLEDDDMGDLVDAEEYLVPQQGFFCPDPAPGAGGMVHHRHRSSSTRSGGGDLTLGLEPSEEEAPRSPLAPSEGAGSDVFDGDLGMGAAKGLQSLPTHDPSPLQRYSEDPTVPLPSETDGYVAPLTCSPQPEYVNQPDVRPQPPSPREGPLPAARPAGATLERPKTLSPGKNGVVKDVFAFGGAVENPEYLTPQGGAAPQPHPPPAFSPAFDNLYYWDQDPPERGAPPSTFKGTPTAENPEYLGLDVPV

SMILES: Cc1ccc(S(=O)(=O)NC(=O)Nc2ncccc2Br)cc1
inhibition at 10 µM [1]: 11.2%
inhibition [2]: inactive

SMILES: S=C(Nc1ccc(Cl)cc1Br)Nc1ncccc1Br
pIC50 [3]: 5.47
pIC50 [4]: 5.60
inhibition at 10 µM [5]: 74.8%
inhibition at 10 µM [1]: 64.1%
inhibition [2]: inactive
inhibition [6]: 82.6%

SMILES: COc1ccccc1CNC(=O)NS(=O)(=O)c1ccccc1
inhibition at 10 µM [1]: 10.3%
inhibition [2]: inactive

Now from value to compound, other results behind:

inhibition [6]: 84.7%
SMILES: S=C(NCCc1ccccc1)Nc1ncccc1Br
pIC50 [3]: 5.95
pIC50 [4]: 4.79
inhibition at 10 µM [5]: 78.8%
inhibition at 10 µM [1]: 63%
inhibition [2]: inactive

inhibition [6]: 87%
SMILES: S=C(Nc1ccc(Cl)cc1Cl)Nc1ncccc1Br
pIC50 [3]: 6.14
pIC50 [4]: 5.89
inhibition at 10 µM [5]: 79.7%
inhibition at 10 µM [1]: 72.4%
inhibition [2]: inactive
